{"source": "patent US20090203718A1", "about": "“CANCER TREATMENT METHOD” (SmithKline Beecham (Cork) Ltd., priority 2006, published 2009)", "assay_type_in_all_cases": "cell-based, human", "key": {"A549 cells [1]": {"test_system": "A549 cells", "experiment": "Cell proliferation, BrdU ELISA and Celltiter Glo (FIG. 1)"}, "A549 cells [2]": {"test_system": "A549 cells", "experiment": "Apoptosis, Roche Cell Death ELISA and Caspase-3/7 (FIG. 1)", "details": "for apoptosis: agent alone, 24 h", "experimental": "(§1) A549 cells were grown in RPMI-1640 supplemented with 25 mM HEPES, 10 mM glutamine and 10% fetal bovine serum and maintained at 37° C. and 5% CO2 in a humid incubator. Colo205 and MDA-MB-468 cells were grown in DMEM supplemented with 25 mM HEPES, 10 mM glutamine, 4.5 g/L d-glucose, and 10% fetal bovine serum. Assays were performed in 96 well microtiter plates with optimum seeding densities for each cell line.\n(§2) Apoptosis was measured using the Roche Cell Death ELISA^Plus kit (catalog 1 774 425) which detects fragmented nucleosomal DNA that is generated during apoptosis.\n(§3) Cell death was measured using the Roche Cell Death ELISA^Plus kit and Promega Apo-ONE™ Homogeneous Caspase-3/7 Assay. Total cell number was measured using the Celltiter Glo® Luminescent Cell Viability Assay and cell proliferation was measured with the Roche BrdU Cell Proliferation ELISA assay."}, "Colo205 cells [3]": {"test_system": "Colo205 cells", "experiment": "Cell proliferation, BrdU ELISA and Celltiter Glo (FIG. 2)", "experimental": "(§4) Colo205 and MDA-MB-468 cells were grown in DMEM supplemented with 25 mM HEPES, 10 mM glutamine, 4.5 g/L d-glucose, and 10% fetal bovine serum. Assays were performed in 96 well microtiter plates with optimum seeding densities for each cell line.\n(§5) Cell proliferation was measured using the Celltiter Glo® Luminescent Cell Viability Assay available from Promega Corporation and the Roche BrdU Cell Proliferation ELISA assay.\nas §3"}, "Colo205 cells [4]": {"test_system": "Colo205 cells", "experiment": "Apoptosis, Roche Cell Death ELISA and Caspase-3/7 (FIG. 2)", "details": "for apoptosis: agent alone, 24 h", "experimental": "as §1, §2, §3"}, "MDA-MB-468 cells [5]": {"test_system": "MDA-MB-468 cells", "experiment": "Cell proliferation, BrdU ELISA and Celltiter Glo (FIG. 3)", "experimental": "as §4, §5, §3"}, "MDA-MB-468 cells [6]": {"test_system": "MDA-MB-468 cells", "experiment": "Apoptosis, Roche Cell Death ELISA and Caspase-3/7 (FIG. 3)", "details": "for apoptosis: agent alone, 24 h", "experimental": "as §1, §2, §3"}, "[7]": {"details": "1:1 molar ratio with GW572016, 24 h"}}, "data": [{"smiles": "Nc1ncnc2c1c(-c1cccc(OCc3ccccc3)c1)cn2[C@H]1C[C@@H](CN2CCCC2)C1", "note": "[GSK621659A]", "values": [{"measurement": "cell proliferation, combination versus either agent alone", "setting": "A549 cells [1]; [7]", "value": "more effective than either agent alone"}, {"measurement": "cell proliferation", "setting": "A549 cells [1]; agent alone, 24 h", "value": "decreased cell proliferation"}, {"measurement": "apoptosis, combination versus either agent alone", "setting": "A549 cells [2]; [7]", "value": "more effective than either agent alone"}, {"measurement": "apoptosis", "setting": "A549 cells [2]", "value": "increased apoptosis"}, {"measurement": "cell proliferation, combination versus either agent alone", "setting": "Colo205 cells [3]; [7]", "value": "more effective than either agent alone"}, {"measurement": "cell proliferation", "setting": "Colo205 cells [3]; agent alone, 24 h", "value": "decreased cell proliferation"}, {"measurement": "apoptosis, combination versus either agent alone", "setting": "Colo205 cells [4]; [7]", "value": "more effective than either agent alone"}, {"measurement": "apoptosis", "setting": "Colo205 cells [4]", "value": "increased apoptosis"}, {"measurement": "cell proliferation, combination versus either agent alone", "setting": "MDA-MB-468 cells [5]; [7]", "value": "more effective than either agent alone"}, {"measurement": "cell proliferation", "setting": "MDA-MB-468 cells [5]; agent alone, 24 h", "value": "decreased cell proliferation"}, {"measurement": "apoptosis, combination versus either agent alone", "setting": "MDA-MB-468 cells [6]; [7]", "value": "more effective than either agent alone"}, {"measurement": "apoptosis", "setting": "MDA-MB-468 cells [6]", "value": "increased apoptosis"}]}, {"smiles": "CS(=O)(=O)CCNCc1ccc(-c2ccc3ncnc(Nc4ccc(OCc5cccc(F)c5)c(Cl)c4)c3c2)o1", "note": "[GW572016, N-{3-Chloro-4-[(3-fluorobenzyl)oxy]phenyl}-6-[5-({[2-(methanesulphonyl)ethyl]amino}methyl)-2-furyl]-4-quinazolinamine ditosylate monohydrate]", "values": [{"measurement": "apoptosis", "setting": "A549 cells [2]", "value": "increased apoptosis"}, {"measurement": "apoptosis", "setting": "Colo205 cells [4]", "value": "increased apoptosis"}, {"measurement": "apoptosis", "setting": "MDA-MB-468 cells [6]", "value": "increased apoptosis"}]}]}
